Earlier results on one molecule are cited in US20250049595A1, “ZOTAROLIMUS-ROSUVASTATIN ELUTING BIODEGRADABLE STENT” (priority 2023, published 2025).

The conditions of the data set: targeted by typical daily dose between 5 and 40 mg.

The structures appear in SMILES notation.

`CC(C)c1nc(N(C)S(C)(=O)=O)nc(-c2ccc(F)cc2)c1/C=C/[C@@H](O)C[C@@H](O)CC(=O)O` [Rosuvastatin]: the plasma concentration is 0.5 ng/mL.
